Legend:
[1] = target: T1, TYK2 protein (His-TVMV-TYK2 JH2 (575-869)) (Homo sapiens, UniProt P29597); assay: Tyk2 JH2 enzyme activity test (HTRF tracer displacement); assay type: binding
T1 construct: TYK2 protein (His-TVMV-TYK2 JH2 (575-869))
Protocol: To a buffer solution containing 20 mM of Hepes pH 7.5, 10 mM of MgCl2, 0.015% of Brij-35, 2 mM of DTT and 50 µg/ mL of BSA were added 0.5 nM of TYK2 protein (His-TVMV-TYK2 JH2 (575-869)), 0.2 nM of terbium-labeled His antibody, fluorescein-labeled kinase tracer at the relevant Kd value, and the test compound. The test system was incubated at room temperature for 90 minutes. Subsequently, the generated HTRF (homogeneous time-resolved fluorescence) signal, i.e., the ratio of the fluorescence intensity of the fluorescein acceptor (520 nm) and the terbium donor (495 nm) at the emission wavelength, was measured on an Envision plate reader, and the IC50 value was calculated based on this. The results of in vitro enzyme activity assay of the free base of the compound of the present disclosure are shown in Table 3: Table 3: In vitro enzyme activity test results of the compound of the present disclosure (IC50)

[2] = tested on: IFNα-stimulated phosphorylated STAT1; assay: IFNα-stimulated phosphorylation STAT1 assay in hPBMC (flow cytometry, CD4+ T cells); assay type: cell-based, Human
Protocol: Human peripheral blood mononuclear cells (hPBMC) were seeded at a cell density of 1x10^5 cells/well and placed in an incubator at 37°C for 90 minutes. Then different concentrations of compounds were added to the cells, wherein the concentration range of each compound started from 2 µM, which was serially diluted 5-fold to obtain a total of 8 concentration gradients. The compounds and cells were incubated at 37 °C for 30 minutes. hPBMC were stimulated with IFN-a (1000 U/ml), and then the level of phosphorylated STAT1 in CD4+ T cells was detected by flow cytometry to evaluate the inhibitory activity of the compound on the IFN-α pathway. The results of the in vitro cell activity assay of the free base of the compound of the present disclosure are shown in Table 4: Table 4: In vitro cell activity test results of the compound of the present disclosure (IC50)

[3] = Pharmacokinetic study, oral administration, mouse; assay type: in vivo, CD-1 mice; details: plasma, 10 mg/kg, 10 mpk
Protocol: (§1) The purpose of this experiment is to study the pharmacokinetics of the test substance in the plasma of male CD-1 mice, SD rats and […] after intravenous injection and oral administration.
(§2) The animals were randomly divided into two groups, with 2 males in each group. The compounds were formulated into the specified formulations (the vehicle was 5 mg/mL of 10% sulfobutyl ether-β-cyclodextrin), and the oral formulations were clear or homogeneous suspensions.
(§3) Whole blood samples were collected from the animals by jugular vein puncture or saphenous vein at 5, 15, 30 minutes, 1, 2, 4, 8, and 24 hours after administration. The whole blood samples were added into centrifuge tubes containing anticoagulants, and centrifuged at 3000g for 15 minutes at 4°C. The supernatant plasma was collected and quickly frozen on dry ice and then stored in a refrigerator at -70 ± 10°C until LC-MS/MS analysis.
(§4) The pharmacokinetic software WinNonlin™ Version 6.3.0 (Pharsight, Mountain View, CA) was used to process the plasma drug concentration data of the compound in a non-compartmental model. The peak concentration (Cmax) and time to peak (Tmax) as well as last measurable time point were directly obtained from the plasma drug concentration-time graph.
(§5) The following pharmacokinetic parameters were calculated using the log-linear trapezoidal method: plasma clearance rate (CL), volume of distribution (Vd), elimination phase half-life (T1/2), mean residence time of drug in vivo from 0 to the terminal time point (MRT0-last), mean residence time of drug in vivo from 0 to infinite time (MRT0-inf), area under the time-plasma concentration curve from 0 to the terminal time point (AUC0-last), area under the time-plasma concentration curve from 0 to infinite time (AUC0-inf), and bioavailability (F). The experimental results of the present disclosure are shown in Table 5: Table 5: Pharmacokinetic test results

[4] = Pharmacokinetic study, oral administration, rat; assay type: in vivo, SD rats; details: plasma, 30 mg/kg, 30 mpk
Protocol: as §1, §2, §3, §4, §5

[5] = Pharmacokinetic study, oral administration, dog; assay type: in vivo; details: plasma, 25 mg/kg, 25 mpk
Protocol: as §1, §2, §3, §4, §5

T1 sequence (P29597 575-869, species assumed): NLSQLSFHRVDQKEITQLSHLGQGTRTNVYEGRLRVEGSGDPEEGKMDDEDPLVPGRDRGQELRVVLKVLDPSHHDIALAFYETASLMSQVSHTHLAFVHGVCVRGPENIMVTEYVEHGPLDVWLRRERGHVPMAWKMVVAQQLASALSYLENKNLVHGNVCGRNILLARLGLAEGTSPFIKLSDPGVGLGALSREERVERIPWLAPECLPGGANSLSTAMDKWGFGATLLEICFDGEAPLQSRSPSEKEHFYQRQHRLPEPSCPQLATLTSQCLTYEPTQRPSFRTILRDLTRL

SMILES | IC50 ([1]; HTRF, 90 minutes at room temperature) [nM] | inhibitory activity against Tyk2 JH2 ([1]; conclusion in words) | IC50 ([2]; Homo sapiens, CD4+ T, read-out: IFNα-stimulated phosphorylated STAT1 (IC50 nM)) [nM] | Tyk2-related cellular activity on IFNα-stimulated phosphorylated STAT1 ([2]; conclusion in words) | AUC(0-t) [3] [µM·h] | Cmax [3] [µM] | Tmax [3] [min] | bioavailability [3] [%] | AUC(0-t) [4] [µM·h] | Cmax [4] [µM] | Tmax [4] [min] | bioavailability [4] [%] | AUC(0-t) [5] [µM·h] | Cmax [5] [µM] | Tmax [5] [h] | bioavailability [5] [%]
[2H]C([2H])([2H])CC(=O)c1cnc(NC(=O)C2CC2)cc1Nc1cccc(-c2cnc(N=S(C)(C)=O)cn2)c1OC | 0.04 | strong inhibitory activity | 1.1 | strong Tyk2-related cellular activity | – | – | – | – | – | – | – | – | – | – | – | –
[2H]C([2H])([2H])CC(=O)c1cnc(NC(=O)C2CC2)cc1Nc1cccc(-c2cnc(N=S(C)(C)=O)cn2)c1OC [Compound of formula (I)] | – | – | – | – | 76 | 32.4 | 30 | 81 | 231 | 44.5 | 45 | 65 | 66.5 | 16.8 | 2 | 103

Source: patent publication EP4640679A1, “SALT FORM AND CRYSTAL FORM OF PYRIDINE MULTI-SUBSTITUTED COMPOUND AND PREPARATION METHOD THEREFOR” (Usynova Pharmaceuticals Ltd., priority 2022, dated 2024)
